By IC50 is commonly meant the concentration at which inhibition is half-maximal.

In test [1] the target is T1, IDH1^R132H homodimer enzyme (Homo sapiens, UniProt O75874, R132H).
T1 construct: purchased not specified
In words: NADPH depletion assay, IDH1 R132H. It counts as biochemical. Summed up:
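IDH1 R132H enzyme (8 nM as diluted) in Tris-HCl pH 7.6 with 10 mM MgCl2, 0.001% Triton X-100 and 4 mM β-mercaptoethanol is preincubated 15 min at RT with compound. Substrate mix (12 uM NADPH, 3.4 mM α-ketoglutarate) is added for 60 min; remaining NAD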

The next test addresses T2, IDH1^R132C (Homo sapiens, UniProt O75874, R132C).
T2 construct: purchased not specified
Description: NADPH depletion assay, IDH1 R132C. It counts as biochemical. Summed up: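 IDH1 R132C (2 nM) preincubated 15 min at RT with compound in Tris-HCl pH 7.6/MgCl2 buffer, then 60 min RT with NADPH and 0.14 mM alpha-ketoglutarate. Remaining NADPH read by diaphorase/resazurin fluorescence (Ex544/Em590).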

A further test deals with U87MG_IDH1R132H. In words: Cellular 2-HG production assay, U87-MG-IDH1 R132H. It counts as cell-based. Particulars: inhibition of 2HG production, 72 hr incubation, LC-MS/MS. In a few lines: (§1)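 Cells in E-MEM/10% FCS (G418 500 μg/mL for the transfected U87-MG line) at 500 per well got compound 24 h after seeding and were incubated 72 h at 37 °C. Medium 2-HG was measured by LC-MS/MS with 2-HG-d3 internal standard; IC50 came from sigmoidal fitting versus controls.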

The target of a further test is T3, IDH1WT enzyme (Homo sapiens, UniProt O75874).
T3 construct: purchased not specified
Description: Enzymatic assay for IDH1 wild-type (NADPH forming assay). It counts as biochemical. The procedure:
IDH1WT enzymatic activity converting isocitric acid to alpha-ketoglutarate is measured using a NADPH forming assay. In the assay the forming cofactor is measured in continuous with the addition of a catalytic excess of diaphorase and resazurin, to generate a fluorescent signal in proportion to the amount of NADPH forming.
Compounds were preincubated with the enzyme, then the reaction was started by the addition of NADP^+, isocitrate, diaphorase and a corresponding substrate, resazurin. Diaphorase reduces resazurin to the highly fluorescent resorufin with the concomitant oxidation of NADPH to NADP. Specifically, 0.2 uL of test compound, previously serially diluted 1 to 3, 10 experimental points from 1 mM in DMSO, was added to 0.016 nM IDH1WT enzyme in 10 μL of Assay Buffer (150 mM NaCl, 50 mM Tris-HCl pH 7.6, 10 mM MgCl2, 0.001% Triton X-100, 4 mM β-mercaptoethanol); the mixture is incubated for 15 minutes at room temperature. The reaction is started with the addition of 10 μL of Substrate Mix (400 μM NADP^+, 40 μM iso-citrate, 5 ugr/mL Diaphorase and 7 μM resazurin in Assay Buffer), the mixture is incubated at room temperature and the reaction is reading on a ViewLux as platereader at Ex544/Em590 in continuous.

The target of the next test is T4, IDH2^R172K (Homo sapiens, UniProt P48735, R172K).
T4 construct: purchased not specified
T4 sequence (P48735 40-452 R172K): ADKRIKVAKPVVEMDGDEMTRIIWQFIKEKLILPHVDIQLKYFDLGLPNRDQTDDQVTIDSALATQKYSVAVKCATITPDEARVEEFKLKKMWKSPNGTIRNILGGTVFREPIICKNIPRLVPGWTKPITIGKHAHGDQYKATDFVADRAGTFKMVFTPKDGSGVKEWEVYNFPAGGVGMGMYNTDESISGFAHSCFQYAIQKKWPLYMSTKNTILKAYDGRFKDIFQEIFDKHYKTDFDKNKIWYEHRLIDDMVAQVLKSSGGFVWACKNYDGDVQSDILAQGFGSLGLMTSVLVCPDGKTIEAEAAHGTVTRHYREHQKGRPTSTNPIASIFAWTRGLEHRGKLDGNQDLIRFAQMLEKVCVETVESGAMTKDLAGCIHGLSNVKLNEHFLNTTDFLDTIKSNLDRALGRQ
In words: NADPH depletion assay, IDH2 R172K. It counts as biochemical. Summed up:
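IDH2 R172K (16 nM) was preincubated 15 min at RT with compound (1:3 series from 1 mM in DMSO) in Tris pH 7.6/NaCl/MgCl2/Triton/β-mercaptoethanol. The reaction ran 60 min at RT with 0.55 mM alpha-ketoglutarate and NADPH (12 μM in the substrate mix). Remaining NADPH was read with diaphorase/resazurin fluorescence at Ex544/Em590.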

Another test deals with HT-1080 (IDH1^R132C). In words: Cellular 2-HG production assay, HT-1080. It counts as cell-based. Particulars: Homo sapiens, HT-1080, 72 h, inhibition of 2HG production, 72 hr incubation, LC-MS/MS; read-out: HT1080 2-HG IC50. Summed up: as §1

T2 sequence (O75874 whole entry R132C): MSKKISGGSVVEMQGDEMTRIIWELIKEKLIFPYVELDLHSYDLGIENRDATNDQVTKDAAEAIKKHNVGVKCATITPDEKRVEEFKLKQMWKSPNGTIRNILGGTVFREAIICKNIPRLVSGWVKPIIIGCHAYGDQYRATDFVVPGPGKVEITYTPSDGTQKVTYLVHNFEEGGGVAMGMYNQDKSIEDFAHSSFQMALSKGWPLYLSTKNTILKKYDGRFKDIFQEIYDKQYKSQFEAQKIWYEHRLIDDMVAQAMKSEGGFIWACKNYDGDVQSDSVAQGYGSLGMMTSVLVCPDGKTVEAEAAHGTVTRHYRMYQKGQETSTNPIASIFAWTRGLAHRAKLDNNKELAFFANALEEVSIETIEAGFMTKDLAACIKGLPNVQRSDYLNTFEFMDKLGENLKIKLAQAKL
T3 sequence (O75874 whole entry): as the sequence (O75874 whole entry R132C) above, with C132R counted along it
T1 sequence (O75874 whole entry R132H): as the sequence (O75874 whole entry R132C) above, with C132H counted along it

For `C=CC(=O)N1CCC(Oc2ccc([C@H](C)Nc3ncc4ccc(=O)n([C@@H](C)C(C)C)c4n3)cc2)CC1` [cpd 159, 2-{(S)-1-[4-(1-Acryloyl-piperidin-4-yloxy)-phenyl]-ethylamino}-8-((S)-1,2-dimethyl-propyl)-8H-pyrido[2,3-d]pyrimidin-7-one], the IC50 stood at 77 nM in test [1]; 37 nM against IDH1^R132C; 81 nM with U87MG_IDH1R132H; 1730 nM on IDH1WT enzyme; 510 nM on IDH2^R172K.
Turning to `C=CC(=O)N1CCN(C(=O)c2ccc([C@H](C)Nc3ncc4ccc(=O)n([C@@H](C)C(C)C)c4n3)cc2F)CC1` [cpd 191, 2-{[(1S)-1-{4-[(4-acryloylpiperazin-1-yl)carbonyl]-3-fluorophenyl}ethyl]amino}-8-[(2S)-3-methylbutan-2-yl]pyrido[2,3-d]pyrimidin-7(8H)-one], the IC50 in test [1] was 70 nM; against IDH1^R132C, 116 nM; at IDH1WT enzyme, 2990 nM; at IDH2^R172K, 902 nM; with HT-1080 (IDH1^R132C), 40 nM.
As to `C=CC(=O)N1CCN([C@@H](CC2CC2)c2ccc(C3(Nc4ncc5ccc(=O)n(C(C)C)c5n4)CC3)cc2)CC1` (single isomer, unassigned) [cpd 246], the IC50 in test [1] stood at 2 nM; on IDH1^R132C it was 1 nM; on IDH1WT enzyme it was 231 nM; on IDH2^R172K, 19 nM; in the test on HT-1080 (IDH1^R132C), 2.1 nM.
The matching figures for `C=CC(=O)N1CCN(Cc2ccc([C@H](C)Nc3nc(N)c4ccc(=O)n(C(C)C)c4n3)cc2)CC1` [cpd 206, 2-{[(1S)-1-{4-[(4-acryloylpiperazin-1-yl)methyl]phenyl}ethyl]amino}-4-amino-8-(propan-2-yl)pyrido[2,3-d]pyrimidin-7(8H)-one]: 13 nM, 15 nM, 221 nM, 98 nM and 10.1 nM.
As for `C=CC(=O)N1CCC(C#N)(c2ccc([C@H](C)Nc3ncc4ccc(=O)n(C(C)C)c4n3)cc2)CC1` [cpd 241, 1-acryloyl-4-{4-[(1S)-1-{[7-oxo-8-(propan-2-yl)-7,8-dihydropyrido[2,3-d]pyrimidin-2-yl]amino}ethyl]phenyl}piperidine-4-carbonitrile], the IC50 in test [1] was determined as 272 nM; against IDH1^R132C, 196 nM; at IDH1WT enzyme it was 117 nM; against IDH2^R172K it was 146 nM; in the test on HT-1080 (IDH1^R132C), 64.7 nM.
As to `C=CC(=O)N1CCN([C@H](CC)c2ccc(C3(Nc4ncc5ccc(=O)n(C(C)C)c5n4)CC3)cc2)CC1` (single isomer, unassigned) [cpd 248], the IC50 in test [1] came to 4 nM; at IDH1^R132C, 2 nM; against IDH1WT enzyme it was 216 nM; on IDH2^R172K it was 30 nM; in the test on HT-1080 (IDH1^R132C), 3.1 nM.
Turning to `C=CC(=O)N1CCN([C@@H](CC)c2ccc(C3(Nc4ncc5ccc(=O)n(C(C)C)c5n4)CC3)cc2)CC1` (single isomer, unassigned) [cpd 249], the IC50 in test [1] was found to be 5 nM; against IDH1^R132C, 3 nM; against IDH1WT enzyme, 215 nM; against IDH2^R172K, 33 nM; with HT-1080 (IDH1^R132C) it was 2.9 nM.
As to `C=CC(=O)N1CCN(c2ccc([C@H](C)Nc3ncc4ccc(=O)n([C@@H](C)C(C)C)c4n3)cc2)CC1` [cpd 175, 2-({(1S)-1-[4-(4-acryloylpiperazin-1-yl)phenyl]ethyl}amino)-8-[(2S)-3-methylbutan-2-yl]pyrido[2,3-d]pyrimidin-7(8H)-one], the half-inhibitory concentration (IC50) in test [1] came out at 65 nM; against IDH1^R132C, 66 nM; in the test with U87MG_IDH1R132H it was 21 nM; at IDH1WT enzyme it was 1170 nM; on IDH2^R172K it was 442 nM.
On to `C=CC(=O)N1CCN([C@H](CC2CC2)c2ccc([C@H](C)Nc3ncc4ccc(=O)n(C(C)C)c4n3)cc2)CC1` [cpd 231, 2-{[(1S)-1-{4-[(1R)-1-(4-acryloylpiperazin-1-yl)-2-cyclopropylethyl]phenyl}ethyl]amino}-8-(propan-2-yl) pyrido [2,3-d]pyrimidin-7(8H)-one], for which the half-maximal inhibitory concentration (IC50) in test [1] stood at 1 nM; against IDH1^R132C, 1 nM; on IDH1WT enzyme, 122 nM; against IDH2^R172K, 14 nM; in the test with HT-1080 (IDH1^R132C), 0.3 nM.
As for `C=CC(=O)N1CCN(Cc2ccc([C@H](C)Nc3ncc4ccc(=O)n(CC(C)(C)C)c4n3)cc2F)CC1` [cpd 141, 2-{[(1S)-1-{4-[(4-acryloylpiperazin-1-yl)methyl]-3-fluorophenyl}ethyl]amino}-8-(2,2-dimethylpropyl)pyrido[2,3-d] pyrimidin-7(8H)-one], the IC50 in test [1] is 38 nM; against IDH1^R132C, 31 nM; in the test with U87MG_IDH1R132H, 24 nM; against IDH1WT enzyme, 1820 nM; against IDH2^R172K, 213 nM.
As to `C=CC(=O)N1CCN([C@H](CC2CC2)c2ccc(C3(Nc4ncc5ccc(=O)n(C(C)C)c5n4)CC3)cc2)CC1` (single isomer, unassigned) [cpd 245], the IC50 in test [1] stood at 2 nM; against IDH1^R132C, 2 nM; against IDH1WT enzyme, 224 nM; at IDH2^R172K, 20 nM; in the test on HT-1080 (IDH1^R132C), 1 nM.
On to `C=CC(=O)N1CCC(Oc2ccc([C@H](C)Nc3ncc4ccc(=O)n(CC(C)(C)C)c4n3)cc2)CC1` [cpd 156, 2-{(S)-1-[4-(1-Acryloyl-piperidin-4-yloxy)-phenyl]-ethylamino}-8-(2,2-dimethyl-propyl)-8H-pyrido[2,3-d]pyrimidin-7-one], for which the IC50 came to 139 nM in test [1]; 91 nM on IDH1^R132C; 289 nM in the test with U87MG_IDH1R132H; 2540 nM against IDH1WT enzyme; 476 nM against IDH2^R172K.
Turning to `C=CC(=O)N1CCN(Cc2ccc([C@H](C)Nc3ncc4ccc(=O)n(C(C)C)c4n3)cc2)CC1` [cpd 184, 2-{[(1S)-1-{4-[(4-acryloylpiperazin-1-yl)methyl]phenyl}ethyl]amino}-8-(propan-2-yl)pyrido[2,3-d]pyrimidin-7(8H)-one], the IC50 came to 126 nM in test [1]; 227 nM at IDH1^R132C; 2870 nM against IDH1WT enzyme; 201 nM at IDH2^R172K; 28 nM with HT-1080 (IDH1^R132C).
In the case of `C=CC(=O)N1CCN(C(CC2CC2)c2ccc(C3(Nc4ncc5ccc(=O)n(C(C)C)c5n4)CC3)cc2)CC1` (stereo not drawn) [cpd 244, 2-[(1-{4-[1-(4-acryloylpiperazin-1-yl)-2-cyclopropylethyl]phenyl}cyclopropyl)amino]-8-(propan-2-yl)pyrido[2,3-d]pyrimidin-7(8H)-one], the IC50 in test [1] amounted to 2 nM; at IDH1^R132C it was 3 nM; against IDH1WT enzyme, 220 nM; against IDH2^R172K it was 21 nM; in the test on HT-1080 (IDH1^R132C), 1.6 nM.
For `C=CC(=O)N1CCN(C(CC)c2ccc([C@H](C)Nc3ncc4ccc(=O)n(CC)c4n3)cc2)CC1` (stereo partly drawn) [cpd 214, 2-{[(1S)-1-{4-[1-(4-acryloylpiperazin-1-yl)propyl]phenyl}ethyl]amino}-8-ethylpyrido[2,3-d]pyrimidin-7(8H)-one], in that order: 4 nM, 2 nM, 64 nM, 15 nM and 2.1 nM.

(Values after patent US12018023B2 (NERVIANO MEDICAL SCIENCES S.R.L., priority 2018, dated 2024).)
